Test results: ChEMBL document CHEMBL1151185, “Isolation and structure elucidation of a novel antimalarial macrocyclic polylactone, menisporopsin A, from the fungus Menisporopsis theobromae” (J Nat Prod, 2004)
Values after ≈ are worked out from the molar mass of the structure shown. Active and inactive are the calls of the source. The calls are words filed in the database; no cut-off is given here.

Key:
Candida albicans = test: Antimicrobial activity against Candida albicans at 20ug/mL; assay type: functional, organism-based
Plasmodium falciparum [1] = test: Antimalarial activity against multidrug-resistant Plasmodium falciparum K1 at 20 ug/mL as reduced [3H]hypoxanthine uptake; assay type: functional, organism-based
BC1 = test: Cytotoxicity against human BC1 cells at 20 ug/mL by colorimetric method; assay type: functional, cell-based
Plasmodium falciparum [2] = test: Antimalarial activity against multidrug-resistant Plasmodium falciparum K1 by [3H]hypoxanthine uptake; assay type: functional, organism-based
[3] = tested on: Mycobacterium tuberculosis; test: Antimycobacterial activity against Mycobacterium tuberculosis H37Ra by microplate alamar blue assay; assay type: functional
[4] = Cytotoxicity against human BC1 cells by colorimetric method; assay type: functional, cell-based
KB = test: Cytotoxicity against human KB cells by colorimetric method; assay type: functional, cell-based

COc1cc2c(c(OC)c1)C(=O)O[C@H](C)CC(=O)O[C@H](C)Cc1cc(OC)cc(OC)c1C(=O)O[C@H](C)CC(=O)O[C@H](C)Cc1cc(OC)cc(OC)c1C(=O)O[C@H](C)C[C@@H](O)C2
Activity (Candida albicans): inactive
Activity (Plasmodium falciparum [1]): inactive
Activity (BC1): inactive

C[C@@H]1Cc2cc(O)cc(O)c2C(=O)O[C@H](C)CC(=O)O[C@H](C)Cc2cc(O)cc(O)c2C(=O)O[C@H](C)C[C@@H](O)Cc2cc(O)cc(O)c2C(=O)O[C@H](C)CC(=O)O1 [MENISPOROPSIN A]
IC50 (Plasmodium falciparum [2]): 4 µg/mL (≈ 5.01 µM)
MIC [3]: 50 µg/mL (≈ 62.6 µM)
IC50 [4]: 5 µg/mL (≈ 6.26 µM)
IC50 (KB): 6 µg/mL (≈ 7.51 µM)
Activity (Candida albicans): inactive
